Experimental data published in patent publication US12252478B2.
“And” between values parts separate entries of the source, which are not always exact repeats. Equal entries are not always repeated.

Columns and labels:
[1] = Intrinsic dissolution rate (VanKel instrument, Cary 100 photometer); type: physicochemical
Protocol: As measured on a VanKel instrument using a Cary 100 photometer, the intrinsic dissolution rate of Form A was determined in pH 4.5, pH 6.8 and 0.1 N HCl medium as follows:
As measured on a VanKel instrument using a Cary 100 photometer, the intrinsic dissolution rate of Form A was determined in pH 3.5, pH 4.5 and 0.1 N HCl medium as follows: […]

[2] = Hygroscopicity (water uptake); type: physicochemical
[3] = Solubility as a function of pH; type: physicochemical; conditions: above pH 3
[4] = Thermodynamic stability of Forms A and B: heating and cooling cycles, transition temperatures
[5] = Equilibration in water depending on pH / form conversion; type: physicochemical
Text: Forms A and B are enantiotropically related. […] Form B spontaneously transforms to Form A at ambient conditions. Form A can be converted to Modification HA, or Form HA, when equilibrated in water at pH 1.

[6] = heating/cooling rate 0.5° C./min
[7] = heating/cooling rate 10° C./min
[8] = heating/cooling rate 20° C./min
[9] = heating/cooling rate 40° C./min

## O=C(Nc1ccc(OC(F)(F)Cl)cc1)c1cnc(N2CC[C@@H](O)C2)c(-c2ccn[nH]2)c1 [Free Base form A]
[1]; Acetate buffer pH 4.5
  Intrinsic DR value: n.a (does not dissolve)
[1]; HCL 0.1N
  Intrinsic DR value: 1.8 mg/min/cm2 and 1.9 mg/min/cm2
[1]; pH = 6.8
  Intrinsic DR value: n.a (does not dissolve)
[2]; 25° C. up to 92% relative humidity
  water uptake: less than 0.1%
[3]
  solubility: rather low

## Cl.O=C(Nc1ccc(OC(F)(F)Cl)cc1)c1cnc(N2CC[C@@H](O)C2)c(-c2ccn[nH]2)c1 [crystal form B of the hydrochloride salt]
[4]; ambient conditions
  form stability at ambient conditions: spontaneously transforms back into Form A
[4]; [6]
  transition B → A: 60.5 °C
[4]; heating/cooling rate 1° C./min
  transition B → A: 53.8 °C
[4]; heating/cooling rate 5° C./min
  transition B → A: 38.5 °C
[4]; [7]
  transition B → A: 37.5 °C
[4]; [8]
  transition B → A: 34.7 °C
[4]; [9]
  transition B → A: 32.2 °C
[4]; upon heating
  decomposition observed: above 240 °C

## Cl.O=C(Nc1ccc(OC(F)(F)Cl)cc1)c1cnc(N2CC[C@@H](O)C2)c(-c2ccn[nH]2)c1 [form A of HCl salt]
[5]; pH 1
  behaviour when equilibrated in water: converting into the trihydrate HA
[5]; pH>3.5
  behaviour when equilibrated in water: prone to disproportionate
[1]; Acetate buffer pH 4.5
  Intrinsic DR value: 0.01 mg/min/cm2
[1]; Citrate buffer (pH 3.5)
  Intrinsic DR value: 0.02 mg/min/cm2
[1]; HCL 0.01N (pH 2)
  Intrinsic DR value: 2.25 mg/min/cm2
[1]; HCL 0.1N (pH 1)
  Intrinsic DR value: 0.16 mg/min/cm2
[4]; [6]
  transition A → B: 95.1 °C
[4]; heating/cooling rate 1° C./min
  transition A → B: 96.5 °C
[4]; heating/cooling rate 5° C./min
  transition A → B: 100.3 °C
[4]; [7]
  transition A → B: 102.1 °C
[4]; [8]
  transition A → B: 104.8 °C
[4]; [9]
  transition A → B: 103.7 °C
[2]; 25° C. up to 95% relative humidity
  water uptake: less than 0.4%
[3]
  solubility: rather low
